Measured values as given in PubChem BioAssay AID1963844 (Molecular Pharmacology Branch, DTP, NCI, 2024).

Tested on: 422866-222-R5-J1-PDC complex spheroid viability
Test: Anticancer human tumor 422866-222-R5-J1-PDC patient-derived pancreatic adenocarcinoma cell line growth inhibition [POLQ]
Details: for IC50: curve of first compound; for viability, T/C: stronger effect = lower value
Description: Multicellular complex tumor spheroid response to Polymerase (POL) inhibitors (novobiocin, ART-558, RP6685) in combination with a variety of drugs and investigational agents in selected tumor cell lines
The POL inhibitors (novobiocin, ART-558, and RP6685) were evaluated both individually and in combination with standard of care and investigational anticancer small molecules within a complex spheroid model of solid tumors. . Complex spheroids include a stromal component modeled by human endothelial cells (HUVEC) and fibroblasts modeled by human mesenchymal stem cells (MSCs). The concentration ranges selected for each drug and investigational agent were based upon clinically achievable concentrations if the clinical Cmax of the agent was known.
Compounds. The drugs and investigational agents: novobiocin (NSC847541), ART-558 (NSC835418), RP-6685 (NSC848927), peposertib (NSC802822), ceralasertib (NSC780249), elimusertib (NSC800525), camonsertib (NSC841442), AZD-1390 (NSC803789), olaparib (NSC753686), talazoparib (NSC767125), rucaparib (NSC756644), sotorasib (NSC818433), MRTX-1133 (NSC836407), SN-38 (NSC673596), topotecan (NSC609699), epotoside (NSC141540), doxorubicin (NSC123127), gemcitabine (NSC613327), 5-fluorouracil (NSC19893), paclitaxel (NSC125973), vemurafenib (NSC761431), MSA-2 (NSC828583), SN-011 (NSC837082), adavosertib (NSC754352), prexasertib (NSC758257), carboplatin (NSC241240) and oxaliplatin (NSC266046), were obtained from the National Cancer Institute (NCI) Developmental Therapeutics Program Chemical Repository (21). The FDA-approved anticancer drug set is available from the Developmental Therapeutics Program at https://dtp.cancer.gov/organization/dscb/obtaining/. […] The stock solutions were prepared in dimethyl sulfoxide (DMSO, Sigma-Aldrich, St. Louis, MO, cat. D2650), except for the platinum compounds which were prepared in saline (Quality Biological, Gaithersburg, MD, cat. 114-055-101), at 800-fold the tested concentration and stored at -70 degrees C prior to their use. All drugs and investigational agents were tested over a range starting from a high concentration at or near the clinical Cmax and decreasing in half-log increments. If the clinical Cmax for an agent had not been determined, the highest concentration tested was 10 microM, except for SN-38, which was tested at a high concentration of 1 microM.
Cell Culture. All cells were maintained in an incubator at 37 degrees C and 5% CO2 with 95% humidity. The PDC lines were cultured according to standard operating procedures established by the NCI PDMR (https://pdmr.cancer.gov). Table 3 of the manuscript, lists the cell lines along with the number of the three cell types plated to form the mct-spheroids and media for tumor cell growth. After thawing, all PDC lines, except 997537-175-T-J1-PDC and 415267-285-R-J2-PDC, were cultured in Matrigel-coated flasks prepared with a working solution of 1X Ham's F-12 nutrient mix, without supplementation (Thermo Fisher Scientific, cat. 11765054), 100 U/mL penicillin-streptomycin (Thermo Fisher Scientific, cat. 15140122), and 2.5% Matrigel (Corning Inc., Corning, NY, cat. 354248) for the first three passages. The two PDC lines 997537-175-T-J1-PDC and 415267-285-R-J2-PDC were cultured on uncoated flasks. The 857933-349-R-J2-PDC line was cultured in 6C/Colon 1B media containing advanced DMEM/F-12 (Thermo Fisher Scientific, cat. 12634028), 10 mM HEPES (Thermo Fisher Scientific, cat. 15630080), 1X GlutaMAX supplement (Thermo Fisher Scientific, cat. 35050061), 0.1 mg/mL primocin (InvivoGen, San Diego, CA, cat. ant-pm-2), 10% defined fetal bovine serum, heat inactivated (HyClone Laboratories Inc., Logan, UT, cat. SH30070.03HI), 50% L-WRN conditioned media (ATCC, cat. CRL-3276), 1.25 mM N-Acetyl-L-cysteine (Sigma-Aldrich, cat. A9165), 10 mM nicotinamide (Sigma-Aldrich, cat. N0636), 1X B-27 supplement (Thermo Fisher Scientific, cat. 17504044), 1X N-2 supplement (Thermo Fisher Scientific, cat. […]

[1] = second compound 0.0316 µM, first compound 0.0316 µM
[2] = second compound 0.0316 µM, first compound 0.1 µM
[3] = second compound 0.0316 µM, first compound 0.316 µM
[4] = second compound 0.0316 µM, first compound 1 µM
[5] = second compound 0.1 µM, first compound 0.0316 µM
[6] = second compound 0.1 µM, first compound 0.1 µM
[7] = second compound 0.1 µM, first compound 0.316 µM
[8] = second compound 0.1 µM, first compound 1 µM
[9] = second compound 0.316 µM, first compound 0.0316 µM
[10] = second compound 0.316 µM, first compound 0.1 µM
[11] = second compound 0.316 µM, first compound 0.316 µM
[12] = second compound 0.316 µM, first compound 1 µM
[13] = second compound 1 µM, first compound 0.0316 µM
[14] = second compound 1 µM, first compound 0.1 µM
[15] = second compound 1 µM, first compound 0.316 µM
[16] = second compound 1 µM, first compound 1 µM
[17] = second compound 3.16 µM, first compound 0.0316 µM
[18] = second compound 3.16 µM, first compound 0.1 µM
[19] = second compound 3.16 µM, first compound 0.316 µM
[20] = second compound 3.16 µM, first compound 1 µM
[21] = second compound 10 µM, first compound 0.0316 µM
[22] = second compound 10 µM, first compound 0.1 µM
[23] = second compound 10 µM, first compound 0.316 µM
[24] = second compound 10 µM, first compound 1 µM
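Further: spheroids exposed to compounds for one week before readout.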
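Wherever viability, T/C is given: percent of DMSO vehicle wells luminescence so 100% = untreated viability.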

Compound `CNCc1ccc(-c2[nH]c3cc(F)cc4c3c2CCNC4=O)cc1` + Cc1cccc(N(C)C(=O)C2C(O)CCN2c2nc(C)cc(C(F)(F)F)c2C#N)c1 has an IC50 (second compound 0.0316 µM) of over 10000 nM, an IC50 (second compound 0.1 µM) of over 10000 nM and an IC50 (second compound 0.316 µM) of over 10000 nM. The IC50 (second compound 1 µM) was over 10000 nM, the IC50 (second compound 3.16 µM) was over 10000 nM and the IC50 (second compound 10 µM) was over 10000 nM. The viability, T/C [1] was 105%, the viability, T/C [2] was 88.9% and the viability, T/C [3] was 91.2%. For the same compound, the viability, T/C [4] was 99.3%, the viability, T/C (second compound 0.0316 µM, first compound 3.16 µM) was 89.6% and the viability, T/C (second compound 0.0316 µM, first compound 10 µM) was 85.5%. It also gave a viability, T/C [5] of 94.8%, a viability, T/C [6] of 86.7% and a viability, T/C [7] of 85.6%. The viability, T/C [8] was 86%, the viability, T/C (second compound 0.1 µM, first compound 3.16 µM) was 101% and the viability, T/C (second compound 0.1 µM, first compound 10 µM) was 108%. The viability, T/C [9] was 88.3%, the viability, T/C [10] was 97.1% and the viability, T/C [11] was 88%. It also gave a viability, T/C [12] of 85%, a viability, T/C (second compound 0.316 µM, first compound 3.16 µM) of 80.9% and a viability, T/C (second compound 0.316 µM, first compound 10 µM) of 89.6%. It also gave a viability, T/C [13] of 103%, a viability, T/C [14] of 85.6% and a viability, T/C [15] of 93.3%. It also gave a viability, T/C [16] of 85.3%, a viability, T/C (second compound 1 µM, first compound 3.16 µM) of 86.7% and a viability, T/C (second compound 1 µM, first compound 10 µM) of 89.7%. The viability, T/C [17] was 96.4%, the viability, T/C [18] was 83.9% and the viability, T/C [19] was 87.6%. For the same compound, the viability, T/C [20] was 80.8%, the viability, T/C (second compound 3.16 µM, first compound 3.16 µM) was 79.8% and the viability, T/C (second compound 3.16 µM, first compound 10 µM) was 87.3%. The viability, T/C [21] was 102%, the viability, T/C [22] was 107% and the viability, T/C [23] was 88%. For the same compound, the viability, T/C [24] was 76.6%, the viability, T/C (second compound 10 µM, first compound 3.16 µM) was 85.8% and the viability, T/C (second compound 10 µM, first compound 10 µM) was 67.1%.

`COc1cccc(OCCCN)c1-c1cc(Nc2cnc(C#N)cn2)n[nH]1` + Cc1cccc(N(C)C(=O)C2C(O)CCN2c2nc(C)cc(C(F)(F)F)c2C#N)c1 gave an IC50 (second compound 0.0316 µM) of 5.54 nM, an IC50 (second compound 0.1 µM) of 6.74 nM and an IC50 (second compound 0.316 µM) of 6.63 nM. For the same compound, the IC50 (second compound 1 µM) was 6.92 nM, the IC50 (second compound 3.16 µM) was 5.11 nM and the IC50 (second compound 10 µM) was under 3.16 nM. The viability, T/C (second compound 0.0316 µM, first compound 0.00316 µM) was 65.4%, the viability, T/C (second compound 0.0316 µM, first compound 0.01 µM) was 30.4% and the viability, T/C [1] was 30.1%. The viability, T/C [2] was 26.9%, the viability, T/C [3] was 36.6% and the viability, T/C [4] was 43.4%. It also gave a viability, T/C (second compound 0.1 µM, first compound 0.00316 µM) of 72.7%, a viability, T/C (second compound 0.1 µM, first compound 0.01 µM) of 37.7% and a viability, T/C [5] of 31.4%. It also gave a viability, T/C [6] of 27.3%, a viability, T/C [7] of 45.7% and a viability, T/C [8] of 45.6%. The viability, T/C (second compound 0.316 µM, first compound 0.00316 µM) was 74.4%, the viability, T/C (second compound 0.316 µM, first compound 0.01 µM) was 32.5% and the viability, T/C [9] was 35%. The viability, T/C [10] was 30.1%, the viability, T/C [11] was 51.8% and the viability, T/C [12] was 32.2%. The viability, T/C (second compound 1 µM, first compound 0.00316 µM) was 77.7%, the viability, T/C (second compound 1 µM, first compound 0.01 µM) was 37.8% and the viability, T/C [13] was 28.8%. It also gave a viability, T/C [14] of 32.5%, a viability, T/C [15] of 25.9% and a viability, T/C [16] of 43.8%. For the same compound, the viability, T/C (second compound 3.16 µM, first compound 0.00316 µM) was 58.3%, the viability, T/C (second compound 3.16 µM, first compound 0.01 µM) was 39.3% and the viability, T/C [17] was 30.4%. For the same compound, the viability, T/C [18] was 35.7%, the viability, T/C [19] was 29.8% and the viability, T/C [20] was 50.1%. The viability, T/C (second compound 10 µM, first compound 0.00316 µM) was 68.1%, the viability, T/C (second compound 10 µM, first compound 0.01 µM) was 30.3% and the viability, T/C [21] was 36.4%. The viability, T/C [22] was 30.5%, the viability, T/C [23] was 35.9% and the viability, T/C [24] was 54.9%.
